The source of these data is patent US5876694A, “Azavesamicols” (priority 1997, dated 1999).

Data set [1] in a line: Tissue distribution of radiotracer in rats. Type of data set: in vivo, male Wistar rats. As to the method: Tissue Distribution Experiments
Four groups of male Wistar rats (n=4) weighing 200-350 g were used in these experiments. Each animal received, while under ether anesthesia, an intravenous injection of the radiotracer (3-5 uCi) dissolved in 0.1 mL of 50% aqueous ethanol. At 5, 30, 60 and 180 min post-injection, blood was collected from the anesthetized animal by cardiac puncture, and the animal was immediately sacrificed by cardiectomy. The organs and tissues of interest were harvested, transferred to preweighed tubes and counted in a Beckman gamma counter. The tubes were subsequently reweighed to give the weight of the corresponding tissues. Preweighed tubes containing 1 mL samples of a 1:100 dilution of the injected dose were also counted and used as reference for calculating the tissue accumulation of radioactivity. The accumulation of radiotracer was expressed as a percentage of injected dose per gram of tissue.
The animals were injected intravenously with 4.9 uCi of the radiotracer i
0.1 ml of 50% aq. EtOH.
The animals were injected with 3.7 uCi of the radiotracer in 0.1 ml of 50

Data set [2] deals with vesamicol receptor. The data set can be described thus: Ex vivo autoradiography of rat brain. The data set is classed as in vivo, male Wistar rats. The conditions noted are these: 3 hrs after iv. As to the method:
Ex-vivo Autoradiographic Studies
Two groups of male Wistar rats (n=2) were used in these experiments. Each animal in the first group received an i.v. injection of (+)-[^125 I]12h (385 uCi in 0.1/ml of 50% aq. EtOH). Similarly, animals in the second group received 330 uCi of (-)-[^125 I]12h (in 0.1 ml of 50% aq. EtOH). After 3 hrs, the animals were sacrificed by decapitation. The brains were carefully removed, embedded in Tissue Tek OCT medium and frozen to […] Twenty micron thick coronal brain slices were subsequently obtained by sectioning rostrocaudally with a Reichert HistoSTAT microtome at -15°. The tissue sections were apposed to Kodak NMC film accompanied by ^125 I-labeled external standards (^125 I-Microscales from Amersham). For delineation of cytoarchitecture, adjacent tissue sections were subjected to Nissl staining.

In data set [3] the test system is vesamicol receptor. The conditions noted are these: rodent brain, cited from earlier work.
For another data set, the system named is vesicular ACh transport. The conditions noted are these: earlier studies; cited from earlier work.
The subject of data set [4] is vesamicol receptor. The conditions noted are these: cited from earlier work; for vesamicol receptor affinity (in words): earlier studies.

As to `OC1CCN(Cc2cccc([125I])c2)CC1N1CCC(c2ccccc2)CC1` (stereo not drawn) [(+)-[^125 I]12h, (+)- and (-)-4-hydroxy-1-(3-[I^125]iodobenzyl)-3-(4-phenyl-piperidinyl)piperidine], in data set [1] (5 min, iv), the Ratio brain/blood worked out at 2.33; the Ratio heart/blood is on record as 4.68; the “Tissue distribution, blood” value is given as 0.24 % dose/g of tissue; the “Tissue distribution, brain” value is listed as 0.57 % dose/g of tissue. Further, in data set [1] (5 min, iv), the “Tissue distribution, gonads” value is reported as 0.13 % dose/g of tissue; the “Tissue distribution, heart” value was 1.14 % dose/g of tissue; the “Tissue distribution, kidney” value is 2.25 % dose/g of tissue; the “Tissue distribution, liver” value is 1.60 % dose/g of tissue. In addition, in data set [1] (5 min, iv), the “Tissue distribution, lung” value is given as 3.67 % dose/g of tissue; the “Tissue distribution, muscle” value was 0.34 % dose/g of tissue; the “Tissue distribution, spleen” value is listed as 0.76 % dose/g of tissue; the “Tissue distribution, thyroid” value is 1.60 % dose/g of tissue. Moreover, in data set [1] (5 min, iv), the “radioactivity in liver, heart, thyroid and spleen (in words)” value was “Moderate to low levels”; the “radioactivity in lung and kidney (in words)” value is reported as “high levels of radioactivity”. Further, the radioactivity in brain in data set [1] (5 min post-injection, iv) is reported as 1.06 % of the injected dose. Besides, in data set [1] (30 min, iv), the Ratio brain/blood was determined as 3.18; the Ratio heart/blood worked out at 2.33; the “Tissue distribution, blood” value is 0.12 % dose/g of tissue; the “Tissue distribution, brain” value is listed as 0.36 % dose/g of tissue. Further, in data set [1] (30 min, iv), the “Tissue distribution, gonads” value is 0.15 % dose/g of tissue; the “Tissue distribution, heart” value is recorded as 0.26 % dose/g of tissue; the “Tissue distribution, kidney” value is listed as 1.32 % dose/g of tissue; the “Tissue distribution, liver” value is reported as 2.18 % dose/g of tissue. In data set [1] (30 min, iv), the “Tissue distribution, lung” value is on record as 1.21 % dose/g of tissue; the “Tissue distribution, muscle” value is 0.16 % dose/g of tissue; the “Tissue distribution, spleen” value is reported as 1.07 % dose/g of tissue; the “Tissue distribution, thyroid” value is on record as 2.33 % dose/g of tissue. In data set [1] (60 min, iv), the Ratio brain/blood came out at 3.08; the Ratio heart/blood is 1.70; the “Tissue distribution, blood” value was 0.09 % dose/g of tissue; the “Tissue distribution, brain” value was 0.27 % dose/g of tissue. In data set [1] (60 min, iv), the “Tissue distribution, gonads” value was 0.17 % dose/g of tissue; the “Tissue distribution, heart” value is listed as 0.15 % dose/g of tissue; the “Tissue distribution, kidney” value is 0.87 % dose/g of tissue; the “Tissue distribution, liver” value is reported as 1.91 % dose/g of tissue. Also, in data set [1] (60 min, iv), the “Tissue distribution, lung” value was 0.82 % dose/g of tissue; the “Tissue distribution, muscle” value is 0.11 % dose/g of tissue; the “Tissue distribution, spleen” value is 0.86 % dose/g of tissue; the “Tissue distribution, thyroid” value is given as 4.59 % dose/g of tissue. Besides, the radioactivity in brain in data set [1] (60 min post-injection, iv) is 0.51 % of the injected dose. Also, in data set [1] (180 min, iv), the Ratio brain/blood was determined as 2.35; the Ratio heart/blood is 1.60; the “Tissue distribution, blood” value is listed as 0.07 % dose/g of tissue; the “Tissue distribution, brain” value was 0.15 % dose/g of tissue. For the same compound, in data set [1] (180 min, iv), the “Tissue distribution, gonads” value is listed as 0.16 % dose/g of tissue; the “Tissue distribution, heart” value is given as 0.10 % dose/g of tissue; the “Tissue distribution, kidney” value is given as 0.50 % dose/g of tissue; the “Tissue distribution, liver” value is 1.18 % dose/g of tissue. In data set [1] (180 min, iv), the “Tissue distribution, lung” value is on record as 0.39 % dose/g of tissue; the “Tissue distribution, muscle” value is reported as 0.08 % dose/g of tissue; the “Tissue distribution, spleen” value is 0.44 % dose/g of tissue; the “Tissue distribution, thyroid” value is reported as 13.13 % dose/g of tissue. The radioactivity in brain in data set [1] (3 hrs post-injection, iv) was 0.39 % of the injected dose. In data set [1] (beginning to 3 hrs post-injection), the “radioactivity in thyroid (in words)” value was “moderate at the beginning but increased significantly by 3 hrs post-injection”. For the same compound, in the data set on vesamicol receptor [2], the “brain regional distribution: cortex, hippocampus and cerebellum” value was “Moderate levels of activity”; the “brain regional distribution: interpeduncular nucleus, olfactory tubercle, nucleus accumbens, amygdala, caudate-putamen, nuclei of fifth and seventh cranial nerves” value is “high levels of radioactivity”.

For the compound `O[C@@H]1CCCC[C@H]1N1CCC(c2ccccc2)CC1` (relative stereo) [[^3 H]vesamicol], the “cortical [^3 H]vesamicol binding after lesioning a known cholinergic pathway (in words)” value in the data set with vesamicol receptor [3] (lesion) is reported as “significant decrease”. In addition, the “[^3 H]vesamicol distribution versus other cholinergic markers (in words)” value in the data set with vesamicol receptor [3] is reported as “correlate well with other markers of cholinergic innervation”.

For `Nc1cccc2c1C[C@@H](N1CCC(c3ccccc3)CC1)[C@H](O)C2` (relative stereo) [Compound 2b], the “inhibition of vesicular ACh transport / activity (in words)” value in the data set on vesicular ACh transport is given as “potent inhibitors of vesicular ACh transport”. For the same compound, the “vesamicol receptor affinity (in words)” value in the data set with vesamicol receptor [4] was “potent ligands”.

Regarding `CCC(O)CN1CCC(c2ccccc2)CC1` (centres unmarked) [Compound 4b], in the data set on vesicular ACh transport, the “inhibition of vesicular ACh transport / activity (in words)” value was “substantially diminished activity”. In the data set on vesamicol receptor [4] (4b relative to 4a), the increase in activity was 30 fold.

With `O[C@@H]1Cc2ccccc2C[C@H]1N1CCC(c2ccccc2)CC1` (relative stereo) [Compound 2a], the “inhibition of vesicular ACh transport / activity (in words)” value in the data set on vesicular ACh transport is on record as “potent inhibitors of vesicular ACh transport”. Also, the “vesamicol receptor affinity (in words)” value with vesamicol receptor [4] is “potent ligands”.

As for `OCCN1CCC(c2ccccc2)CC1` [Compound 4a], in the data set on vesicular ACh transport, the “inhibition of vesicular ACh transport / activity (in words)” value is recorded as “substantially diminished activity”.
